In patent publication US8987195B2 (priority 2012, dated 2015):
Read-outs that look alike come from different tables or passages of the source.

Columns and labels:
[1] = test system: HCV genotype 1b replicon; assay: HCV replicon assay, genotype 1b replicon EC50; type: cell-based, Hepatitis C virus; conditions: Hepatitis C virus, genotype 1b replicon, read-out: EC50 [gt-1b]
Method in brief: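 Assay format: compound titration on stable replicon cells, no G418 during treatment, 24 to 48 hours. Lysates were assayed for replicon RNA (hybridization/protection or TaqMan) or luciferase; EC50 fitted to four parameters against DMSO.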

[2] = target: HCV NS3/4A protease genotype 1b (Hepatitis C virus genotype 1b, UniProt P26663); assay: HCV NS3/4A protease time-resolved fluorescence (TRF) assay, Ki against genotype 1b; type: biochemical; conditions: IC50 [gt-1b] (nM), NS3/4A genotype 1b, enzyme 0.2 nM
Method in brief: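 Enzyme was pre-incubated 30 min with inhibitor in HEPES pH 7.5 buffer (150 mM NaCl, 15% glycerol, 10 mM DTT). Reaction ran 2.5 h at room temperature with 25 nM europium TRF peptide substrate, read at ex 340/em 615 nm. Enzyme levels: 0.2 nM (1b), 0.4 nM (A156T), 0.025 nM (3a). Ki came from four-parameter IC50 via IC50=Ki(1+[S]/KM).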

Row | SMILES | EC50 [1] [nM] | IC50 [2] [nM] | EC50 ([1]; K+ salt) [nM] | IC50 ([2]; K+ salt) [nM]
1 | COc1ccc2nc(C(C)C)c3c(c2c1)CC[C@]1(C[C@H]2C(=O)N[C@]4(C(=O)NS(=O)(=O)C5(C)CC5)C[C@H]4/C=C\CCCCC[C@H](NC(=O)OC(C)(C)C(F)(F)F)C(=O)N2C1)O3 [Example 295, 1,1,1-trifluoro-2-methylpropan-2-yl [(2R,6S,12Z,13aS,14aR,16aS)-9′-methoxy-14a-{[(1-methylcyclopropyl)sulfonyl]carbamoyl}-5,16-dioxo-5′-(propan-2-yl)-1,1′,2′,5,6,7,8,9,10,11,13a,14,14a,15,16,16a-hexadecahydrospiro[cyclopropa[e]pyrrolo[1,2-a][1,4]diazacyclopentadecine-2,3′-pyrano[2,3-c]quinolin]-6-yl]carbamate] | 2.36 | 0.024 | – | –
2 | Cc1nc2ccc(OCC(F)(F)F)cc2c2c1O[C@]1(CC2)C[C@H]2C(=O)N[C@]3(C(=O)NS(=O)(=O)C4(C)CC4)C[C@H]3/C=C\CCCCC[C@H](NC(=O)OC(C)(C)C)C(=O)N2C1 [Example 296, tert-butyl [(2R,6S,12Z,13aS,14aR,16aS)-5′-methyl-14a-{[(1-methylcyclopropyl)sulfonyl]carbamoyl}-5,16-dioxo-9′-(2,2,2-trifluoroethoxy)-1,1′,2′,5,6,7,8,9,10,11,13a,14,14a,15,16,16a-hexadecahydrospiro[cyclopropa[e]pyrrolo[1,2-a][1,4]diazacyclopentadecine-2,3′-pyrano[2,3-c]quinolin]-6-yl]carbamate] | 2.55 | 0.009 | – | –
3 | Cc1nc2ccc(OC(F)(F)F)cc2c2c1O[C@]1(CC2)C[C@H]2C(=O)N[C@]3(C(=O)NS(=O)(=O)C4(C)CC4)C[C@H]3/C=C\CCCCC[C@H](NC(=O)OCC(C)(C)C)C(=O)N2C1 [Example 297, 2,2-dimethylpropyl [(2R,6S,12Z,13aS,14aR,16aS)-5′-methyl-14a-{[(1-methylcyclopropyl)sulfonyl]carbamoyl}-5,16-dioxo-9′-(trifluoromethoxy)-1,1′,2′,5,6,7,8,9,10,11,13a,14,14a,15,16,16a-hexadecahydrospiro[cyclopropa[e]pyrrolo[1,2-a][1,4]diazacyclopentadecine-2,3′-pyrano[2,3-c]quinolin]-6-yl]carbamate] | 6.06 | 0.009 | – | –
4 | Cc1nc2ccc(OC(F)(F)F)cc2c2c1O[C@]1(CC2)C[C@H]2C(=O)N[C@]3(C(=O)NS(=O)(=O)C4(C)CC4)C[C@H]3/C=C\CCCCC[C@H](NC(=O)OC(C)(C)C(F)(F)F)C(=O)N2C1 [Example 298, 1,1,1-trifluoro-2-methylpropan-2-yl [(2R,6S,12Z,13aS,14aR,16aS)-5′-methyl-14a-{[(1-methylcyclopropyl)sulfonyl]carbamoyl}-5,16-dioxo-9′-(trifluoromethoxy)-1,1′,2′,5,6,7,8,9,10,11,13a,14,14a,15,16,16a-hexadecahydrospiro[cyclopropa[e]pyrrolo[1,2-a][1,4]diazacyclopentadecine-2,3′-pyrano[2,3-c]quinolin]-6-yl]carbamate] | 6.31 | 0.017 | – | –
5 | COc1ccc2nc(C(C)C)c3c(c2c1)C(F)(F)C[C@]1(C[C@H]2C(=O)N[C@]4(C(=O)NS(=O)(=O)C5(C)CC5)C[C@H]4/C=C\CCCCC[C@H](NC(=O)OC(C)(C)C(F)(F)F)C(=O)N2C1)O3 [Example 299, 1,1,1-trifluoro-2-methylpropan-2-yl [(2S,6S,12Z,13aS,14aR,16aS)-1′,1′-difluoro-9′-methoxy-14a-{[(1-methylcyclopropyl)sulfonyl]carbamoyl}-5,16-dioxo-5′-(propan-2-yl)-1,1′,2′,5,6,7,8,9,10,11,13a,14,14a,15,16,16a-hexadecahydrospiro[cyclopropa[e]pyrrolo[1,2-a][1,4]diazacyclopentadecine-2,3′-pyrano[2,3-c]quinolin]-6-yl]carbamate] | – | – | 6.37 | 0.02
